Assay results published in patent US20190282701A1, “CONJUGATES OF HYALURONIC ACID AND ANTICANCER COMPOUNDS” (THE UNIVERSITY OF MANCHESTER, priority 2016, published 2019).

What was measured:
T47D = test: hypoxic/normoxic cytotoxicity, T47D; format: cell-based; details: Homo sapiens, survival at 72 h, n=3, conjugate as TPZ groups
MIA PACA-2 = test: hypoxic/normoxic cytotoxicity, MIA PACA-2; format: cell-based; details: Homo sapiens, survival at 72 h, n=3, conjugate as TPZ groups
HepG2 = test: hypoxic/normoxic cytotoxicity, HepG2; format: cell-based; details: Homo sapiens, survival at 72 h, n=3, conjugate as TPZ groups
human tumoral cell lines [1] = tested on: human tumoral cell lines
SKBr3 = test: hypoxic/normoxic cytotoxicity, SKBr3; format: cell-based; details: Homo sapiens, survival at 72 h, n=3, conjugate as TPZ groups
MDA-MB-468 = test: hypoxic/normoxic cytotoxicity, MDA-MB-468; format: cell-based; details: Homo sapiens, survival at 72 h, n=3, conjugate as TPZ groups
FaDu = test: hypoxic/normoxic cytotoxicity, FaDu; format: cell-based; details: Homo sapiens, survival at 72 h, n=3, conjugate as TPZ groups
A549 = test: hypoxic/normoxic cytotoxicity, A549; format: cell-based; details: Homo sapiens, survival at 72 h, n=3, conjugate as TPZ groups
MDA-MB-231 = test: hypoxic/normoxic cytotoxicity, MDA-MB-231; format: cell-based; details: Homo sapiens, survival at 72 h, n=3, conjugate as TPZ groups
Calu-3 = test: hypoxic/normoxic cytotoxicity, Calu-3; format: cell-based; details: Homo sapiens, survival at 72 h, n=3, conjugate as TPZ groups
Calu-6 = test: hypoxic/normoxic cytotoxicity, Calu-6; format: cell-based; details: Homo sapiens, survival at 72 h, n=3, conjugate as TPZ groups
SNU-423 = test: hypoxic/normoxic cytotoxicity, SNU-423; format: cell-based; details: Homo sapiens, survival at 72 h, n=3, conjugate as TPZ groups
MCF-7 = test: hypoxic/normoxic cytotoxicity, MCF-7; format: cell-based; details: Homo sapiens, survival at 72 h, n=3, conjugate as TPZ groups
CAL-27 = test: hypoxic/normoxic cytotoxicity, CAL-27; format: cell-based; details: Homo sapiens, survival at 72 h, n=3, conjugate as TPZ groups
Hep3B2 = test: hypoxic/normoxic cytotoxicity, Hep3B2; format: cell-based; details: Homo sapiens, Hep3B, survival at 72 h, n=3, conjugate as TPZ groups
human tumoral cell lines [2] = test: tumour cell viability assays on a panel of human cancer cell lines (overall statements, FIG. 8-10); details: eight cancer cell lines, 3 h exposure, FIG. 9 and 10
[3] = tested on: MDA-MB-231 breast cancer cells; test: MTT toxicity of curcumin and curcumin-HAB conjugate; format: cell-based
Method: MDA-MB-231 breast cancer cells were cultured in RPMI-1640 (Gibco) containing 10% FBS, 1% Pen-Strep, L-Glutamine 2 mM (medium) at 37° C. in a humidified 5% CO2 atmosphere. To determine the toxicity of curcumin and a curcumin-HAB conjugate, cells were seeded in 96-well plates at a density of 1,000 cells per well in medium and left to attach for 24 hours. Medium was then removed and replaced with medium containing various concentrations of curcumin or the curcumin-HA conjugate. […] After this time, drug containing medium was removed, replaced with fresh medium and cells incubated for a further 96 hours. […] Briefly, 50 μl of MTT solution (0.5 mg/ml in cell culture medium) was added to each well. After incubation for a further 4 h at 37° C. the medium was removed from each well and replaced with 200 μl of DMSO to dissolve the formazan crystals. The Absorbance in each well was then read at a wavelength of 450 nm using a Tecan Infinite M200 plate-reader using I-control software. The relative cell viability (%) was calculated by the formula [A]test/[A]control×100, where “[A]test” is the absorbance of the test sample, and “[A]control” is the absorbance of the control cells incubated solely with culture medium.

[4] = literature; cited from earlier work
[5] = tested on: C66-1 squamous nasopharynx carcinoma cells; details: 72 h; cited from earlier work
16-F10 melanoma cells = details: 72 h; cited from earlier work
[6] = tested on: HK1 squamous nasopharynx carcinoma cells; details: 72 h; cited from earlier work
MCF7 breast cancer cells = details: 72 h; cited from earlier work
[7] = tested on: NCI-H209 lung cancer cells; details: 24 h; cited from earlier work
LNCaP tumor = test: tumor growth in LNCaP tumor-bearing athymic nude mice; format: in vivo; details: i.v. every 3 day, 21 days
Method: Tumor-bearing mice were prepared by injecting a suspension of LNCaP cells 1×10^6 in saline physiological solution (100 μL) into the subcutaneous dorsa of athymic nude mice (seven weeks old, 20-25 g). After fourteen days of appropriate tumor growth, LNCaP bearing mice were divided into eight groups (n=10 for each group). Treatment was initiated when the tumor volume reached 90 mm^3. The mice were then i.v. injected with 200 μL of the following solutions: […] DMSO to obtain doses of 3, 6, 25 mg/Kg, HAB to obtain a dose of 50 mg/Kg, and DMSO 11% wt. in PBS. Intravenous injections, administered in tail vein, were performed every 3 day for a total period of 21 days of treatment and then sacrificed according to ethical laws in force, following a literature method^1. The tumor size was determined by caliper measurement of the largest and perpendicular diameters during the time of treatment. Tumor volumes were calculated according to the formula: V=a×b^2×0.52, where a is the largest superficial diameter and b is the smallest superficial diameter, according to a literature procedure^17.

[8] = MIA PaCa-2, MIA PACA-2, 0.1% O2, 3 h exposure
[9] = MIA PaCa-2, MIA PACA-2, Air, 3 h exposure
[10] = HepG2, HepG2, 0.1% O2, 3 h exposure
[11] = HepG2, HepG2, Air, 3 h exposure
[12] = SK-BR-3, SKBr3, 0.1% O2, 3 h exposure
[13] = SK-BR-3, SKBr3, Air, 3 h exposure
[14] = MDA-MB-468, MDA-MB-468, 0.1% O2, 3 h exposure
[15] = MDA-MB-468, MDA-MB-468, Air, 3 h exposure
[16] = A549, A549, 0.1% O2, 3 h exposure
[17] = MDA-MB-231, MDA-MB-231, 0.1% O2, 3 h exposure
[18] = MDA-MB-231, MDA-MB-231, Air, 3 h exposure
[19] = Calu-3, Calu-3, 0.1% O2, 3 h exposure
[20] = Calu-3, Calu-3, Air, 3 h exposure
[21] = Calu-6, Calu-6, 0.1% O2, 3 h exposure
[22] = Calu-6, Calu-6, Air, 3 h exposure
[23] = SNU-423, SNU-423, 0.1% O2, 3 h exposure
[24] = SNU-423, SNU-423, Air, 3 h exposure
[25] = MCF7, MCF-7, 0.1% O2, 3 h exposure
[26] = CAL-27, CAL-27, 0.1% O2, 3 h exposure
[27] = CAL-27, CAL-27, Air, 3 h exposure

Structure (SMILES) | IC50 (T47D; 0.1% O2, 3 h exposure) [µM] | IC50 (T47D; Air, 3 h exposure) [µM] | IC50 (MIA PACA-2; [8]) [µM] | IC50 (MIA PACA-2; [9]) [µM] | IC50 (HepG2; [10]) [µM] | IC50 (HepG2; [11]) [µM] | IC50 (SKBr3; [12]) [µM] | IC50 (SKBr3; [13]) [µM] | IC50 (MDA-MB-468; [14]) [µM] | IC50 (MDA-MB-468; [15]) [µM] | IC50 (FaDu; 0.1% O2, 3 h exposure) [µM] | IC50 (FaDu; Air, 3 h exposure) [µM] | IC50 (A549; [16]) [µM] | IC50 (A549; A549, A549, Air, 3 h exposure) [µM] | IC50 (MDA-MB-231; [17]) [µM] | IC50 (MDA-MB-231; [18]) [µM] | IC50 (Calu-3; [19]) [µM] | IC50 (Calu-3; [20]) [µM] | IC50 (Calu-6; [21]) [µM] | IC50 (Calu-6; [22]) [µM] | also measured
Nc1n[n+]([O-])c2ccccc2[n+]1[O-] [TPZ, tirapazamine] | 17.1 ± 1 | 271 ± 36.4 | 15.3 ± 2.5 | 270 ± 10 | 13 ± 4.7 | 228 ± 40.1 | 6.3 ± 1.3 | 218 ± 3.5 | 7.5 ± 4.1 | 232 ± 35 | 23.3 ± 5.4 | 383 ± 104 | 81.3 ± 7.2 | 585 ± 26.3 | 30 ± 5 | 341 ± 37.5 | 71.7 ± 4.4 | 242 ± 6 | 75 ± 8.6 | 340 ± 11.5 | difference between hypoxic and normoxic cytotoxicity (human tumoral cell lines [1]): larger difference between hypoxic and normoxic cytotoxicity; IC50 (SNU-423; [23]): 40 ± 5.8 µM; IC50 (SNU-423; [24]): > 500 µM; IC50 (MCF-7; [25]): 20 ± 2 µM; IC50 (MCF-7; MCF7, MCF-7, Air, 3 h exposure): 310 ± 18.3 µM; IC50 (CAL-27; [26]): 10 ± 2 µM; IC50 (CAL-27; [27]): 318 ± 50.2 µM; IC50 (Hep3B2; Hep3B2, 0.1% O2, 3 h exposure): 31.2 ± 2.3 µM; IC50 (Hep3B2; Hep3B2, Air, 3 h exposure): > 500 µM
O=C(NCCc1ccc(O)c(O)c1)Nc1n[n+]([O-])c2ccccc2[n+]1[O-] [TPZ-DOPA] | 18 ± 3.7 | 35.5 ± 6.4 | 9.6 ± 3.4 | 28 ± 3.7 | 3.7 ± 0.7 | 13.8 ± 2.8 | 13 ± 1.3 | 17.7 ± 1.5 | 8.2 ± 2.6 | 17.5 ± 5 | 6.5 ± 0.9 | 18 ± 2 | 42.3 ± 1.2 | 83.6 ± 3.7 | 9 ± 1.4 | 23.1 ± 5.3 | 16.7 ± 0.9 | 20.6 ± 1.1 | 8.3 ± 0.9 | 26.7 ± 4.8 | 72 h viability under hypoxia (0.1% oxygen) vs normoxia (air) (human tumoral cell lines [2]): viability is lower under hypoxia than that under normoxia; IC50 (SNU-423; [23]): 6 ± 1 µM; IC50 (SNU-423; [24]): 22.5 ± 6.4 µM; IC50 (MCF-7; [25]): 15.4 ± 7.09 µM; IC50 (MCF-7; MCF7, MCF-7, Air, 3 h exposure): 23.1 ± 5.5 µM; IC50 (CAL-27; [26]): 7.5 ± 4.4 µM; IC50 (CAL-27; [27]): 18.7 ± 3.1 µM; IC50 (Hep3B2; Hep3B2, 0.1% O2, 3 h exposure): 4.8 ± 0.8 µM; IC50 (Hep3B2; Hep3B2, Air, 3 h exposure): 21.8 ± 2.7 µM
COc1cc(/C=C/C(=O)CC(=O)/C=C/c2ccc(O)c(OC)c2)ccc1O [curcumin] |  |  |  |  |  |  |  |  |  |  |  |  |  |  |  |  |  |  |  |  | maximum cell kill that could be achieved ([3]; MDA-MB-231, 40 μM curcumin, 3 h exposure then 96 h): 40%; concentration of curcumin needed for 40% cell kill ([3]; MDA-MB-231, 3 h exposure then 96 h, conjugate as curcumin contained): 40 µM
Oc1cc(O)cc(/C=C/c2ccc(O)c(O)c2)c1 [piceatannol] |  |  |  |  |  |  |  |  |  |  |  |  |  |  |  |  |  |  |  |  | tissue accumulation of free drug [4]: strong renal and pulmonary accumulation
O=c1c(O)c(-c2ccc(O)c(O)c2)oc2cc(O)cc(O)c12 [quercetin] |  |  |  |  |  |  |  |  |  |  |  |  |  |  |  |  |  |  |  |  | IC50 [5]: 150 to 200 µM; IC50 (16-F10 melanoma cells): 20 µM; tissue accumulation of free drug [4]: strong renal and pulmonary accumulation; IC50 [6]: 150 to 200 µM; IC50 (MCF7 breast cancer cells): 10 µM; IC50 [7]: 5 µM; dose of free quercetin giving results comparable to HABQ (LNCaP tumor): 25 mg/kg
